Test results: article PMC6440482 (European journal of pharmacology, 2018)
pIC50: −log10 of the molar value. “And” between values parts separate entries of the source, which are not always exact repeats. Identical values can stand only once. Like-named read-outs stand apart in the source and are kept apart here.

Tests used:
mDAT = mDAT (Mus musculus, UniProt Q61327); test: [3H]MPP+ uptake inhibition in transiently transfected mDAT-HEK cells; type: cell-based
mSERT = mSERT (Mus musculus, UniProt Q60857); test: [3H]5-HT uptake inhibition in transiently transfected mSERT-HEK cells; type: cell-based
mNET = mNET (Mus musculus, UniProt O55192); test: [3H]MPP+ uptake inhibition in transiently transfected mNET-HEK cells; type: cell-based
hPMAT = biological target: T1, hPMAT (Homo sapiens, UniProt Q7RTT9); test: [3H]MPP+ uptake competition in stable hPMAT-HEK cells; type: cell-based
T1 sequence (Q7RTT9 1-530): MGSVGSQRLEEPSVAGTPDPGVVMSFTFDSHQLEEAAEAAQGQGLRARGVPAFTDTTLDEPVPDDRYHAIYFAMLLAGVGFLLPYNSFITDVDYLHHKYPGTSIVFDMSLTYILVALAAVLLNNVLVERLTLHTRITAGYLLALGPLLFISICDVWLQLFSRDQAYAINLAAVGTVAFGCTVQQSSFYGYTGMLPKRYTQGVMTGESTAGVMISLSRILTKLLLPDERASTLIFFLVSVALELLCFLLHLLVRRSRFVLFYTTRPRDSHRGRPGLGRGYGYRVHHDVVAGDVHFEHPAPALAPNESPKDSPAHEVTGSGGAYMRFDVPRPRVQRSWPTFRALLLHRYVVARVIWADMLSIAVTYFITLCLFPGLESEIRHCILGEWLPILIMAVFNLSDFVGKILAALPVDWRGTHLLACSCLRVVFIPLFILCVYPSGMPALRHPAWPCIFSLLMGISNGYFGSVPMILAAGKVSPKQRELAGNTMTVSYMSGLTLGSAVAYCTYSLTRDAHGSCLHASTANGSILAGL

hOCT3 = biological target: T2, hOCT3 (Homo sapiens, UniProt O75751); test: [3H]MPP+ uptake competition in stable hOCT3-HEK cells; type: cell-based; details: 10 min room temperature
T2 sequence (O75751 1-556): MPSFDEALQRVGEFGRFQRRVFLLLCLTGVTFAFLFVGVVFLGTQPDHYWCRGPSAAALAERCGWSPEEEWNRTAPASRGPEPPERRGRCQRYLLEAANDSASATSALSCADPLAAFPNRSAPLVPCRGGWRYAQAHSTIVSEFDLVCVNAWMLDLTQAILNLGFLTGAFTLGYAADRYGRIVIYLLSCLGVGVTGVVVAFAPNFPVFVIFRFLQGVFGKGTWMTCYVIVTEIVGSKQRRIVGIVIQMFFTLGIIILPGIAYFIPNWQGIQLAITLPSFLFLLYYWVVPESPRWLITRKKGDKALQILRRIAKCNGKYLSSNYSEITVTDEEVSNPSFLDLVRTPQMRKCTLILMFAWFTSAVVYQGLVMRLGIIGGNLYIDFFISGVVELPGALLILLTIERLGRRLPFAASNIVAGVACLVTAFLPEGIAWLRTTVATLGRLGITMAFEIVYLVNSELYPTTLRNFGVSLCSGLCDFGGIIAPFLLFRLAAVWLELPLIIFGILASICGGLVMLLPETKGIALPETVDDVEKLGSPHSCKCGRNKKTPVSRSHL

hOCT2 = biological target: T3, hOCT2 (Homo sapiens, UniProt O15244); test: [3H]MPP+ uptake competition in stable hOCT2-HEK cells; type: cell-based; details: 10 min room temperature
T3 sequence (O15244 1-555): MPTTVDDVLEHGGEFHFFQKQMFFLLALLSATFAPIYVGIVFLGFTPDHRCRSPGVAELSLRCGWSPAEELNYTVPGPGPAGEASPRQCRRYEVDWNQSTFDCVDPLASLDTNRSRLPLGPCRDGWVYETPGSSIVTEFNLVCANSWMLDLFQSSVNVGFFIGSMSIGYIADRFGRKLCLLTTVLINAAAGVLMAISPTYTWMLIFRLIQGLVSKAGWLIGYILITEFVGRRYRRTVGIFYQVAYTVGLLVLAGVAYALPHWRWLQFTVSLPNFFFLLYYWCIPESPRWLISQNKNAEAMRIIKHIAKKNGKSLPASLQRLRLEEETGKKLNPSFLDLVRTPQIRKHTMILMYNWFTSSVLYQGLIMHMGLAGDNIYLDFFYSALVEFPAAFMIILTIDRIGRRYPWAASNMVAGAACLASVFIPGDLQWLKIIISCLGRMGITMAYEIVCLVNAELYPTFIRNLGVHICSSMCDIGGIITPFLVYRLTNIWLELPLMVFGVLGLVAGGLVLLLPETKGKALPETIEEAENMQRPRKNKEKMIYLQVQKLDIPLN

DAT = DAT (Mus musculus, UniProt Q61327); test: [3H]WIN 35428 binding displacement in mouse striatum homogenate
[1] = read-out: hPMAT-HEK IC50, 10 nM [3H]MPP+ uptake, 10 min room temperature
[2] = read-out: hOCT3-HEK IC50, 10 nM [3H]MPP+ uptake
[3] = read-out: hOCT2-HEK IC50, 10 nM [3H]MPP+ uptake
[4] = read-out: DAT [3H]WIN 35428 IC50, mouse striatum homogenate, 4 nM [3H]WIN 35428, 60 min

mNET, sequence (O55192 whole entry): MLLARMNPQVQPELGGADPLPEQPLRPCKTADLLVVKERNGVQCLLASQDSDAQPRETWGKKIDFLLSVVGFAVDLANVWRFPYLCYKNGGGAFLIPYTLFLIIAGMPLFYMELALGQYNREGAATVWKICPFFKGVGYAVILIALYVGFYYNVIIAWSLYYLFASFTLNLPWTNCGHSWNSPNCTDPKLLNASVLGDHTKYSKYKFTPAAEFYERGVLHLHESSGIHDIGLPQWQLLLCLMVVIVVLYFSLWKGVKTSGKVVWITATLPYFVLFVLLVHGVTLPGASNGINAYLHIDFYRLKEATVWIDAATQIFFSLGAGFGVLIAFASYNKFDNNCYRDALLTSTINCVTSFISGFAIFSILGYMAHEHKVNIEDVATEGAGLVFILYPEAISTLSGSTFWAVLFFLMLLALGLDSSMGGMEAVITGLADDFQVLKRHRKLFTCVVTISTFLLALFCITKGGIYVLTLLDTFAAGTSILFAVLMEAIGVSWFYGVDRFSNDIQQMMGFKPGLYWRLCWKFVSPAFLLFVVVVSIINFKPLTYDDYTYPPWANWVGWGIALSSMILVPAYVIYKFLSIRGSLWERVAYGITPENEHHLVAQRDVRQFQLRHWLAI
mSERT, sequence (Q60857 whole entry): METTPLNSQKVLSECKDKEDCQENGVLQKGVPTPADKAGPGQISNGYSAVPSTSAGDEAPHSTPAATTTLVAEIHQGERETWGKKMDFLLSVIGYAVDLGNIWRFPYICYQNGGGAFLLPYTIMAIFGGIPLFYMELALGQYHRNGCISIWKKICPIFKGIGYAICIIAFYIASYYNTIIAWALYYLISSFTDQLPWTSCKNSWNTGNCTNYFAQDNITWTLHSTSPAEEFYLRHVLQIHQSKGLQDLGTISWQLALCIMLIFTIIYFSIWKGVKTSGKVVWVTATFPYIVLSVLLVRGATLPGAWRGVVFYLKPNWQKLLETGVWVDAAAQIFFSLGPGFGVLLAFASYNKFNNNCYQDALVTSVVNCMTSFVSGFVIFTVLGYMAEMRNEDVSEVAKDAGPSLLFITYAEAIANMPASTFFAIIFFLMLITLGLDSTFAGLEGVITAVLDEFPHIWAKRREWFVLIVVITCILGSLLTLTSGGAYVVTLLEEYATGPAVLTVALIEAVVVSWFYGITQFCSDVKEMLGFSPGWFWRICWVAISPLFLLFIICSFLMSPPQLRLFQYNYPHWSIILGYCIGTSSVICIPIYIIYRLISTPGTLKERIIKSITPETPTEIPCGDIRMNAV
mDAT, sequence (Q61327 whole entry): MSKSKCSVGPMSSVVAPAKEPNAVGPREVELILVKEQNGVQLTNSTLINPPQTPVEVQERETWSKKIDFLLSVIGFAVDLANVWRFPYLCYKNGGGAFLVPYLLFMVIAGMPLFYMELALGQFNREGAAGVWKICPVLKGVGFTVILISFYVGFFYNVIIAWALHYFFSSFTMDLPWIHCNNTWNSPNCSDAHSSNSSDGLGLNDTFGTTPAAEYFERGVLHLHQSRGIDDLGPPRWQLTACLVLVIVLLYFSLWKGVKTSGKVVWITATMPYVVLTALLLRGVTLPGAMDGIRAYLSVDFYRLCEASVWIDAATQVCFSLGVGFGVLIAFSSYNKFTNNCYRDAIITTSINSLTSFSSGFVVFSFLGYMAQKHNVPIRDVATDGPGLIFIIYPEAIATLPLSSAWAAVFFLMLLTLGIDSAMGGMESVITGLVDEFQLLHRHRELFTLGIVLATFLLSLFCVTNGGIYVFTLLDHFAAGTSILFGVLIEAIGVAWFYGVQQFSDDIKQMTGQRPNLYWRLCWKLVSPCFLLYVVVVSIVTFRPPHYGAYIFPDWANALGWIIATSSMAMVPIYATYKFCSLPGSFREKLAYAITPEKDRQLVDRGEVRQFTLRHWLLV
DAT, sequence (Q61327 whole entry): as above

COC(=O)[C@H]1[C@@H](OC(=O)c2ccccc2)C[C@@H]2CC[C@H]1N2C [Cocaine]
pIC50 (mDAT; mDAT-HEK IC50, 20 nM [3H]MPP+ uptake, 3 min): 6.74 | pIC50 (mSERT; mSERT-HEK IC50, 100 nM [3H]5-HT uptake, 1 min): 6.30 and 6.29 | pIC50 (mNET; mNET-HEK IC50, 20 nM [3H]MPP+ uptake, 3 min): 5.92 and 5.93

C[C@]12C[C@H](O)[C@H]3[C@@H](CCC4=CC(=O)CC[C@@]43C)[C@@H]1CC[C@@H]2C(=O)CO [Corticosterone]
pIC50 (mDAT): 3.44 | pIC50 (hPMAT): 2.98 | pIC50 (mSERT): 3.35 | pIC50 (hOCT3; hOCT3-HEK IC50, 10 nM [3H]MPP+ uptake): 6.22 and 6.21 | pIC50 (hOCT2; hOCT2-HEK IC50, 10 nM [3H]MPP+ uptake): 4.10 | pIC50 (mNET): 3.08

CCN1C(=Cc2ccc3ccccc3[n+]2CC)C=Cc2ccccc21 [Decynium 22, 1,1’-diethyl-2,2’-cyanine]
pIC50 (mDAT; read-out: mDAT-HEK IC50, 20 nM [3H]MPP+ uptake, 3 min): 4.89 | pIC50 (hPMAT; [1]): 5.96 | pIC50 (mSERT; read-out: mSERT-HEK IC50, 100 nM [3H]5-HT uptake, 1 min): 5.10 | pIC50 (mSERT; read-out: mSERT-HEK IC50, 100 nM [3H]5-HT uptake, 1 min, listed as D22): 5.10 | pIC50 (hOCT3; [2]): 6.70 | pIC50 (hOCT2; [3]): 5.00 | pIC50 (mNET; read-out: mNET-HEK IC50, 20 nM [3H]MPP+ uptake, 3 min): 4.46 | pIC50 (DAT; [4]): 4.97

NCCc1ccc(O)c(O)c1 [Dopamine]
pIC50 (DAT): 4.00

C[n+]1ccc(-c2ccccc2)cc1 [MPP^+, 1-methyl-4-phenylpyridinium]
pIC50 (hPMAT; [1]): 2.99 | pIC50 (hOCT3; [2]): 4.04 | pIC50 (hOCT2; [3]): 3.96

COC(=O)[C@H]1[C@@H](c2ccc(F)cc2)C[C@@H]2CC[C@H]1N2C [WIN 35428]
pIC50 (DAT; [4]): 7.22
